Experimental data: patent US20260167637A1, “NLRP3 INFLAMMASOME INHIBITOR AND USE THEREOF” (TransThera Sciences (Nanjing), Inc., priority 2022, published 2026)

How the values were obtained:
[1] = Stability in canine liver microsomes; type: in vitro ADME; settings: dog, canine liver microsomes 0.5 mg protein/mL, 1 μM test substance, β-NADPH 1 mM, 37° C.; for half-life at 1 μM: read-out: Canine t1/2
Protocol: (§1) Experimental Example 2: Evaluation of Stability of Compounds Disclosed Herein in Liver Microsomes
(§2) Composition of experimental incubation system:
(§3) An appropriate amount of the compound was precisely weighed out and dissolved in DMSO to prepare a 10.0 mM stock solution. The 10.0 mM stock solution was diluted with DMSO to 1.0 mM, and then diluted with phosphate buffer (containing 3 mM MgCl2) to prepare a 10 μM test substance working solution for later use (DMSO content in the reaction system: 0.1%).
(§4) An appropriate amount of β-NADPH was precisely weighed out and then prepared into a 5 mM β-NADPH working solution using phosphate buffer (containing 3 mM MgCl2) for later use.
(§5) (1) The liver microsomes (20 mg protein/mL) were taken out from a −80° C. freezer and pre-incubated on a 37° C. water bath thermostatic oscillator for 3 min to thaw for later use.
(§6) (2) A mixed solution of the incubation system (without β-NADPH) was prepared according to “composition of experimental incubation system” described above, and pre-incubated on a 37° C. water bath thermostatic oscillator for 2 min.
(§7) (3) Control group (without β-NADPH): 10 μL of phosphate buffer (containing 3 mM MgCl2) and 40 μL of the mixed solution of the incubation system in step (2) were taken and mixed, and the mixture was vortexed for 30 s and mixed well, resulting in a total reaction volume of 50 μL; the sample was duplicated. The mixture was placed on a 37° C. water bath thermostatic oscillator for incubation, and timing was started, with termination time points set at 0 min and 60 min.
(§8) (4) Sample group: 10 μL of the β-NADPH solution (5 mM) and 40 μL of the mixed solution in step (2) were taken and mixed, resulting in a total reaction volume of 50 μL; the mixture was vortexed for 30 s and mixed well; the sample was duplicated. The mixture was placed on a 37° C. water bath thermostatic oscillator for incubation, and timing was started, with termination time points set at 0 min, 5 min, 10 min, 20 min, 30 min, and 60 min.
(§9) (5) The mixture was vortexed for 5 min and then centrifuged at 4000 rpm for 10 min.
(§10) (6) 50 μL of the supernatant was taken and added to 150 μL of water, and the resulting mixture was vortexed and mixed well before LC/MS/MS analysis.
(§11) The half-life (t1/2) and clearance rate (CL) were calculated using the following first-order kinetic formula
(§12) Notes: k denotes the slope of the logarithm of the remaining amount of a compound vs. time, and Vd denotes apparent volume of distribution.

[2] = Stability in rat liver microsomes; type: in vitro ADME; settings: rat liver microsomes 0.5 mg protein/mL, 1 μM test substance, β-NADPH 1 mM, 37° C.; for half-life at 1 μM: read-out: Rat t1/2
Protocol: as §1, §2, §3, §4, §5, §6, §7, §8, §9, §10, §11, §12

[3] = Pharmacokinetic study in male SD rats; type: in vivo; settings: rat, plasma
Protocol: Experimental Example 4: Pharmacokinetic Study of Compounds in Male SD Rats
(§13) The compounds were prepared into solutions using a mixed vehicle composed of 5% dimethyl sulfoxide, 20% (30% solutol), and 75% normal saline. The compound solutions were intragastrically administered to male SD rats at a dose of 5.0 mg/kg, and the blood collection time points were: 15 min, 30 min, 1 h, 2 h, 4 h, 6 h, 8 h, 10 h, and 24 h.
as §13, with “intravenously injected into” for “intragastrically administered to”, “1.0” for “5.0”, “were: 5 min,” for “were:”, “4h,” for “4 h,”, “8h,” for “8 h,”
Intravenous catheterization was performed on the animals the day before the administration. After the administration, blood samples of about 300 μL were collected from the jugular vein and placed into anticoagulation tubes containing EDTA-K2. The blood samples were centrifuged at 5000 rpm at 4° C. for 10 min to give plasma samples. The plasma samples were prepared within 30 min after blood collection. The plasma samples were stored in a −80° C. freezer before testing.

THP-1 cell NLRP3 = target: T1, THP-1 cell NLRP3 (Homo sapiens, UniProt Q96P20); assay: Inhibitory activity against cell NLRP3 inflammasomes in THP-1 cells (LPS + nigericin, ELISA of supernatant); type: cell-based; settings: PMA-differentiated THP-1 cells, LPS 500 ng/mL 3 h, compound 1 h, nigericin 30 min; human IL-10 (so in the source) in supernatant by ELISA
T1 construct: endogenous in cells; host or cells: THP-1 cells, PMA-differentiated, stimulated with LPS and nigericin
Outline: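 PMA-differentiated (10 ng/mL, 16 h) THP-1 cells primed with 500 ng/mL LPS for 3 h in serum-free medium, then compound for 1 h (DMSO stock diluted 1:1000). Nigericin added for 30 min at 37 °C; IL-1β (printed as IL-10) in supernatant measured by ELISA.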

[4] = Pharmacokinetic study in mice; type: in vivo, female C57BL/6J mice; settings: female, C57BL/6J, mouse, plasma
Protocol: as §13, with “female C57BL/6J mice” for “male SD rats”, “10” for “5.0”, “h,” for “h, 10 h,”
as §13, with “intravenously injected into female C57BL/6J mice” for “intragastrically administered to male SD rats”, “5” for “5.0”, “were: 5 min,” for “were:”, “h,” for “h, 10 h,”
The samples to be tested were taken out from a −80° C. freezer, naturally thawed at room temperature, and then vortexed for 5 min.
Plasma samples of 10 μL from different individuals were accurately pipetted into 1.5 mL centrifuge tubes.
900 μL of a 100 ng/mL internal standard working solution (a solution of tolbutamide in acetonitrile) was added, and the mixture was well mixed.
After 5 min of vortexing, centrifugation was performed at 12,000 rpm for 5 min.
50 μL of the supernatant was accurately pipetted into a 96-well plate to which water was added in advance at 150 μL/well.
After 5 min of vortexing, LC-MS/MS analysis was performed.
The results of the test substance concentrations were output by Analyst 1.6.3 of AB Sciex.
Parameters such as mean, standard deviation, and coefficient of variation (excluding those output directly by Analyst 1.6.3) were calculated using Microsoft Excel. PK parameters were calculated using WinNonlin Phenoix 8.2 software NCA (Tmax was a median).

T1 sequence (Q96P20 whole entry): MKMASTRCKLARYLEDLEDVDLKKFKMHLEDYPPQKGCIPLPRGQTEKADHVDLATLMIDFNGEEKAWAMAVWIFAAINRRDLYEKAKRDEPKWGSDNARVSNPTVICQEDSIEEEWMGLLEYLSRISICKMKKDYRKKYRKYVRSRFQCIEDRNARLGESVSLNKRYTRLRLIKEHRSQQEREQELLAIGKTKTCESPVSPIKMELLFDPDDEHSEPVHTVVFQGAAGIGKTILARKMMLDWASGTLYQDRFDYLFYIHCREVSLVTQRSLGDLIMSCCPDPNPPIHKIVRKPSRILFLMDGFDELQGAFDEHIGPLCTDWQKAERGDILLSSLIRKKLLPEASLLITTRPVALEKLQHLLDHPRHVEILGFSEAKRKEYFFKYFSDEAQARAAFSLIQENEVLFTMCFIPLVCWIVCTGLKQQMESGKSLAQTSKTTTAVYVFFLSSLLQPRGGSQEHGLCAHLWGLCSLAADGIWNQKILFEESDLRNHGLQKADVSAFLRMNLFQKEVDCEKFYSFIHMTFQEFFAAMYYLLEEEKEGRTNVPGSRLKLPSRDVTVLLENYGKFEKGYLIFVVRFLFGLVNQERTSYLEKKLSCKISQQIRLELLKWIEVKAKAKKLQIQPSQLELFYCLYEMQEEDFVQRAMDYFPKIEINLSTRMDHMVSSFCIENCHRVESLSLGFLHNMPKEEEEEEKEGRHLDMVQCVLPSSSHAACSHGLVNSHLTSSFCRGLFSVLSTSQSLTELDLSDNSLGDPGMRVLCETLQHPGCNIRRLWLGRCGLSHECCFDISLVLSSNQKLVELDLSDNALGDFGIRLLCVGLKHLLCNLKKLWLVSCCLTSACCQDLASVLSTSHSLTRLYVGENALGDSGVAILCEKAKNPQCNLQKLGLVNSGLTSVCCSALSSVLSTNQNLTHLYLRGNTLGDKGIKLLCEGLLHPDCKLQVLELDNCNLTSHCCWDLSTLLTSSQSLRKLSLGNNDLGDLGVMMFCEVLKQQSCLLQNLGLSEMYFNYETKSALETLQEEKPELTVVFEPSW

C#Cc1ccc(-c2nnc(N[C@@H]3CCCN(CCO)C3)c(=O)n2C)c(O)c1 [Compound 42, (R)-3-(4-ethynyl-2-hydroxyphenyl)-6-((1-(2-hydroxyethyl)piperidin-3-yl)amino)-4-methyl-1,2,4-triazin-5(4H)-one]
microsomal CLint at 1 μM [1]: 1.2 µL/min/mg
half-life at 1 μM [1]: 19.2 h
microsomal CLint at 1 μM [2]: 4.2 µL/min/mg
half-life at 1 μM [2]: 5.5 h
AUC(0-t) ([3]; iv 1 mg/kg, read-out: AUClast iv (0-24 h)): 2490 ng·h/mL
clearance ([3]; iv 1 mg/kg, read-out: Cl—obs iv (clearance rate) (converted)): 6.65 mL/min/kg
Vd ([3]; iv 1 mg/kg, read-out: Vss iv (distribution volume)): 0.694 L/kg
half-life ([3]; iv 1 mg/kg, read-out: tz1/2 iv (terminal half-life) (converted)): 1.55 h
bioavailability ([3]; po 5 mg/kg vs iv 1 mg/kg, read-out: F% (absolute bioavailability)): 77.8%
Tmax ([3]; po 5 mg/kg, median, read-out: Tmax po (time to peak plasma concentration)): 1 h
AUC(0-t) ([3]; po 5 mg/kg, read-out: AUClast po (0-24 h)): 9720 ng·h/mL
Cmax ([3]; po 5 mg/kg, read-out: Cmax po (peak concentration)): 2490 ng/mL
half-life ([3]; po 5 mg/kg, read-out: tz1/2 po (terminal half-life) (converted)): 3.99 h
IC50 (THP-1 cell NLRP3): 4.6 nM

C#Cc1ccc(-c2nnc(N[C@@H]3CCCN(CCO)C3)nc2C2CC2)c(O)c1 [Compound 100, (R)-2-(5-cyclopropyl-3-((1-(2-hydroxyethyl)piperidin-3-yl)amino)-1,2,4-triazin-6-yl)-5-ethynylphenol]
microsomal CLint at 1 μM [1]: 2.8 µL/min/mg
half-life at 1 μM [1]: 8.25 h
microsomal CLint at 1 μM [2]: 8.4 µL/min/mg
half-life at 1 μM [2]: 2.75 h
AUC(0-t) ([4]; iv 5 mg/kg, read-out: AUClast iv (0-24 h)): 4460 ng·h/mL
clearance ([4]; iv 5 mg/kg, read-out: Cl—obs iv (clearance rate) (converted)): 18 mL/min/kg
Vd ([4]; iv 5 mg/kg, read-out: Vss iv (distribution volume)): 2.41 L/kg
half-life ([4]; iv 5 mg/kg, read-out: tz1/2 iv (terminal half-life) (converted)): 1.65 h
bioavailability ([4]; po 10 mg/kg vs iv 5 mg/kg, read-out: F% (absolute bioavailability)): 68.4%
Tmax ([4]; po 10 mg/kg, median, read-out: Tmax po (time to peak plasma concentration)): 0.25 h
AUC(0-t) ([4]; po 10 mg/kg, read-out: AUClast po (0-24 h)): 6280 ng·h/mL
Cmax ([4]; po 10 mg/kg, read-out: Cmax po (peak concentration)): 1720 ng/mL
half-life ([4]; po 10 mg/kg, read-out: tz1/2 po (terminal half-life) (converted)): 3.63 h
IC50 (THP-1 cell NLRP3): 2.4 nM
